Patent publication US20070099970A1, “Immunomodulatory compounds that target and inhibit the pY'binding site of tyrosene kinase p56 LCK SH2 domain” (priority 2005, published 2007)

Molecular target: T1, recombinant GST Lck SH2 domain fusion protein (Homo sapiens, UniProt P06239)
T1 construct: recombinant GST Lck SH2 domain fusion protein; made in house
Experiment: solid phase EIA inhibition assay: binding of GST Lck SH2 domain to CD3 ζ chain ITAM 2 phosphopeptide
Conditions: assay example 1, stronger inhibitors >60% inhibition, weaker inhibitors <60% inhibition
Description: Compounds of the invention were obtained from commercial sources and were tested using a high-throughput Enzyme Immunoassay (EIA) developed to rapidly quantify inhibition.
Biological activities were measured using said EIA assay using 96 well medium binding EIA plates (Costar). Wells were coated with 100 μl of human CD3 ζ chain ITAM 2 phosphopeptide conjugated to BSA (˜10 pmole peptide equivalent) in PBS overnight at 4° C. and blocked with 300 μl of PBS containing 5% (wt/vol) powdered skim milk for 1 h at 37° C. After washing with PBS containing 1% Tween 20 (PBST), 3 times, 100 μl of precalibrated bacterial lysate containing recombinant GST Lck SH2 domain fusion protein was added in the presence or absence of test compounds and incubated for 1 h at room temperature. After 3 extensive washings with PBST, 100 μl of PBS containing HRP-conjugated rabbit anti-GST antibody was added and incubated for 1 h. After extensive washing with PBST, 100 μl of TMB substrate was added and absorbance at 620 nm was measured using a multiwell EIA plate reader (Anthos HTIII). The percent inhibition (% inhibition) was calculated based on the optical density (OD) using the formula: % inhibition=100−(ΔOD of test well/ΔOD of positive wells)×100, where ΔOD was calculated by subtracting background OD (average OD of negative wells) from the test as well as positive control wells. Error analysis was performed on two or more measurements.

T1 sequence (P06239 127-224 limits assumed): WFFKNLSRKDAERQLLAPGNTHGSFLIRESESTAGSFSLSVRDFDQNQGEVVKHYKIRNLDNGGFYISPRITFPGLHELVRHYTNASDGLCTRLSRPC

inhibitory activity, in words	SMILES
lower activity	Cc1ccc(NC(=O)CN2C(=O)S/C(=C\c3cccc(O)c3)C2=O)cc1 [276-14]
lower activity	Cc1cccc(NC(=O)CN2C(=O)S/C(=C\c3ccc(O)cc3)C2=O)c1 [276-6]
stronger inhibitors	Cc1ccc(NC(=O)CN2C(=O)S/C(=C/c3ccc(-c4ccc(Cl)c(C(=O)O)c4)o3)C2=O)cc1 [276-13]
weak inhibitors	COC(=O)c1ccc(-c2ccc(/C=C3\SC(=O)N(CC(=O)Nc4ccc(C)cc4)C3=O)o2)c(C)c1 [276-8]
lower activity	Cc1ccc(NC(=O)CN2C(=O)S/C(=C\c3ccc(O)cc3)C2=O)cc1 [276-15]

SMILES	inhibitory activity, in words
Cc1ccc(NC(=O)CN2C(=O)S/C(=C\c3ccccc3O)C2=O)cc1 [276-11]	lowest activity among the highly active compounds
